{
  "source": "paper PMC4403042",
  "about": "“Atrial-like cardiomyocytes from human pluripotent stem cells are a robust preclinical model for assessing atrial-selective pharmacology” (EMBO Molecular Medicine, 2015)",
  "key": {"NKX2-5-eGFP/w hESCs": {"tested_on": "NKX2-5-eGFP/w hESCs", "test": "Cardiac differentiation of hESCs with RA, flow cytometry for GFP at day 15", "assay_type": "cell-based, human", "source_text": "A cocktail of cytokines (Fig1A) was used to initiate cardiac differentiation in NKX2-5-eGFP/w hESCs as described previously (Ng et al, [2008]; Elliott et al, [2011]). To direct differentiating hESCs toward an atrial phenotype, timing and concentration of treatment with RA were carefully optimized (Supplementary Fig S1A–C). We hypothesized that specification of CM subtypes in vitro occurs post-mesoderm formation and prior to the onset of cardiac progenitor stage. Accordingly, embryoid bodies (EBs) were supplemented with RA from day 4, just after the transient expression of early cardiac mesoderm marker, MESP1, until day 7, a time point at which key transcription factors such as NKX2.5, GATA4 and MEF2C important for commitment and specification of cardiovascular lineages are activated (Supplementary Fig S1A).\nTherefore, treatment of differentiating hESCs with 1 μmol/l of RA from day 4 to 7 was considered to be most suitable for driving atrial differentiation. As a control, every experiment included parallel differentiating cultures treated with 0.002% DMSO (the final concentration in RA-treated cultures) from day 4 to 7 (Fig1A).\nA transgenic NKX2-5-eGFP/w hESC line that faithfully reports endogenous NKX2.5 expression by GFP was described previously (Elliott et al, [2011]). […]\nGene expression was determined on the HumanHT-12 v4 Expression BeadChip at ServiceXS, Leiden, The Netherlands. […]"}, "embryoid bodies (EBs)": {"tested_on": "embryoid bodies (EBs)", "test": "Beating frequency of embryoid bodies from CT or RA differentiations", "assay_type": "cell-based, human", "conditions": "RA-treated EBs, N=16, 37 degrees; control 45/min", "source_text": "EMBO Molecular Medicine Peer Review Process File - EMM-2014-04757\nPlease, discuss this finding.\nThe reviewer raises an important point and we have now discussed this finding on page-17 of the\nthe atrial-selective ion channel gene, KCNA5. These experiments also established that KCNJ3 and\nKCNJ5 are regulated by COUP-TFII.\nKCNJ3 and KCNJ5 in atrial CMs. Future studies aimed at dissecting the roles of COUP-TFI and\nCOUP-TFII during atrial differentiation are required to understand whether these genes act in\nIt also remains to be tested if\nloss of COUP-TFI can be rescued by COUP-TFII and vice versa. However, since myocardial\nablation of COUP-TFII in the mouse results in a severe phenotype (25), it seems unlikely that\nCOUP-TFI can account for loss of COUP-TFII. Nonetheless, it is likely that deletion of both COUP-\nTFI and COUP-TFII might result in a more severe phenotype”.\nOn page 5 a Fig S1G is introduced; this should be Fig S1F\nThis was an error, which has now been corrected.\nFig S2 is not introduced in the main text.\nWe apologize for the missing text describing Fig. S2. This is now included on page 6 of the revised\nFig 5 panel G label must be corrected. […]\na platform maintained at 37 degrees. We determined the beating frequency of N=16 EBs each. […]\nrates recorded were 45/min in control EBs and 60/min in RA-treated EBs (Error bars represent […]"}},
  "data": [
    {"smiles": "CC1=C(/C=C/C(C)=C/C=C/C(C)=C/C(=O)O)C(C)(C)CCC1", "note": "[RA, all-trans retinoic acid]", "values": [
      {"measurement": "percentage of GFP+ cells at day 15", "setting": "NKX2-5-eGFP/w hESCs; RA 1 μmol/l day 4 to 7, flow cytometry, control 65%", "value": 50, "unit": "%"},
      {"measurement": "effect on cardiac differentiation (percentage of GFP+ cells at day 15)", "setting": "NKX2-5-eGFP/w hESCs; RA 1–10 nmol/l day 4 to 7", "value": "enhanced cardiac differentiation"},
      {"measurement": "beating frequency of EBs", "setting": "embryoid bodies (EBs)", "value": 60, "unit": "min⁻¹"}
    ]}
  ]
}
